Measurements published in patent US10322110B2, “Imidazole-based antimicrobial agents” (priority 2014, dated 2019).
Values after ≈ are worked out from the molar mass of the structure shown. Like-named read-outs stand apart in the source and are kept apart here.

Tests used:
[1] = system: Staphylococcus aureus MRSA (COL); experiment: broth microdilution MIC assay, Staphylococcus aureus MRSA (COL); format: cell-based; conditions: for MIC: Staphylococcus aureus, MRSA
[2] = system: Human hepatocytes (HepaRG cells); experiment: human cytotoxicity assay in vitro (CellTiter-Glo), hepatocytes; format: cell-based; conditions: cytotoxicity class
[3] = system: Staphylococcus aureus MSSA (Newman); experiment: broth microdilution MIC assay, Staphylococcus aureus MSSA (Newman); format: cell-based; conditions: for MIC: Staphylococcus aureus; for Antibacterial activity Staphylococcus aureus (MSSA): MIC100 class score, broth microdilution
[4] = system: Staphylococcus epidermidis (PCI 1200, ATCC12228); experiment: broth microdilution MIC assay, Staphylococcus epidermidis; format: cell-based; conditions: ATCC12228, read-out: Antibacterial activity SE (Staphylococcus epidermidis)
[5] = system: Bacillus subtilis (Marburg strain, ATCC6051); experiment: microbe, parasite or virus in culture; format: cell-based; conditions: ATCC6051, read-out: Antibacterial activity BS (Bacillus substilis)
[6] = system: Mycobacterium smegmatis (mc(2)155, ATCC700084); experiment: broth microdilution MIC assay, Mycobacterium smegmatis; conditions: MIC activity class
[7] = system: penicillin-, erythromycin- and tetracycline-resistant Streptococcus pneumoniae (ATCC 700677), ARSP; experiment: microbe, parasite or virus in culture; format: cell-based
[8] = system: Streptococcus pneumoniae (Chester, ATCC49619); experiment: broth microdilution MIC assay, Streptococcus pneumoniae; format: cell-based; conditions: MIC100 class score, 24 h
[9] = 24 h, read-out: Antibacterial activity Staphylococcus aureus (MRSA)
[10] = read-out: Antibacterial activity MRSA (Staphylococcus aureus MRSA)
[11] = 24 h, read-out: Antibacterial activity Staphylococcus aureus (MSSA)
[12] = read-out: Antibacterial activity MSSA (Staphylococcus aureus MSSA)
[13] = ATCC700677, MIC activity class, read-out: Antibacterial activity ARSP (multi-drug resistant-SP)
[14] = ATCC700677, read-out: Antibacterial activity ARSP (multi-drug resistant-SP)
[15] = MIC100 class score, broth microdilution, 24 h
[16] = MIC100 class score, broth microdilution, 24 h, read-out: Antibacterial activity Staphylococcus aureus (MRSA)

SMILES	MIC [1, 9] [mg/L]	MIC [1, 10] [mg/L]	cytotoxicity cell line H (hepatocytes) [2]	MIC [3, 11] [mg/L]	MIC [3, 12] [mg/L]	MIC [4] [mg/L]	MIC [5] [mg/L]	Antibacterial activity MS (Mycobacterium smegmatis) [6]	MIC [7, 13] [mg/L]	MIC [7, 14] [mg/L]	Antibacterial activity Staphylococcus aureus (MSSA) ([3]; 24 h)	Antibacterial activity Staphylococcus aureus (MRSA) [1, 15]	Antibacterial activity Streptococcus pneumoniae [8]	MIC [1, 16] [mg/L]
Cc1[nH]c(-c2ccc(-c3cccc(F)c3C)o2)nc1-c1ccccc1 [Compound 60]	20 to 50 (≈ 60.2 to 150 µM)	20 to 50 (≈ 60.2 to 150 µM)	3	3 to 10 (≈ 9.03 to 30.1 µM)	3 to 10 (≈ 9.03 to 30.1 µM)	20 to 50 (≈ 60.2 to 150 µM)	3 to 10 (≈ 9.03 to 30.1 µM)	2 (MIC100 of 11-201 μg/ml)	2 to 5 (≈ 6.02 to 15 µM)					
Cc1nc(-c2ccc(-c3ccccc3OC(F)(F)F)o2)[nH]c1-c1ccccc1Cl [Compound 19]		20 to 50 (≈ 47.8 to 119 µM)	3		20 to 50 (≈ 47.8 to 119 µM)			2 (MIC100 of 11-201 μg/ml)		2 to 5 (≈ 4.78 to 11.9 µM)				
FC(F)(F)Oc1ccccc1-c1ccc(-c2nc(Cl)c(-c3ccccc3)[nH]2)o1 [Compound 64]		20 to 50 (≈ 49.4 to 124 µM)	3		3 to 10 (≈ 7.41 to 24.7 µM)	20 to 50 (≈ 49.4 to 124 µM)	20 to 50 (≈ 49.4 to 124 µM)		2 to 5 (≈ 4.94 to 12.4 µM)		2 (MIC100 of 11-201 μg/ml)			
Cc1nc(-c2ccc(-c3ccccc3OC(F)(F)F)o2)[nH]c1-c1cccc(Cl)c1 [Compound 21]			3		1 to 3 (≈ 2.39 to 7.16 µM)	20 to 50 (≈ 47.8 to 119 µM)	3 to 10 (≈ 7.16 to 23.9 µM)		< 1		3 (MIC100 of 3-10 μg/ml)	3 (MIC100 of 3-10 μg/ml)		
Cc1[nH]c(-c2ccc(-c3ccc(Cl)cc3)s2)nc1-c1ccccc1 [Compound 6]							11 to 201 (≈ 31.4 to 573 µM)	2 (MIC100 of 11-201 μg/ml)	2 to 5 (≈ 5.7 to 14.3 µM)				3 (MIC100 of 2-5 μg/ml)	
Cc1nc(-c2ccc(-c3cccc(OC(F)(F)F)c3)o2)[nH]c1-c1ccccc1 [Compound 34]		1 to 3 (≈ 2.6 to 7.81 µM)	2	1 to 3 (≈ 2.6 to 7.81 µM)	1 to 3 (≈ 2.6 to 7.81 µM)	20 to 50 (≈ 52 to 130 µM)	3 to 10 (≈ 7.81 to 26 µM)	2 (MIC100 of 11-201 μg/ml)	< 1					1 to 3 (≈ 2.6 to 7.81 µM)
Cc1[nH]c(-c2ccc(-c3ccccc3OC(F)(F)F)o2)nc1-c1ccc(Cl)cc1 [Compound 24]		3 to 10 (≈ 7.16 to 23.9 µM)	2		3 to 10 (≈ 7.16 to 23.9 µM)	20 to 50 (≈ 47.8 to 119 µM)	3 to 10 (≈ 7.16 to 23.9 µM)		< 1		3 (MIC100 of 3-10 μg/ml)			
Cc1nc(-c2ccc(-c3ccc(Cl)c(OC(F)(F)F)c3)o2)[nH]c1-c1ccc(F)cc1 [Compound 43]		11 to 201 (≈ 25.2 to 460 µM)	3		3 to 10 (≈ 6.87 to 22.9 µM)	20 to 50 (≈ 45.8 to 114 µM)	3 to 10 (≈ 6.87 to 22.9 µM)		< 1		3 (MIC100 of 3-10 μg/ml)	2 (MIC100 of 11-201 μg/ml)		
Cc1[nH]c(-c2ccc(-c3ccccc3OC(F)(F)F)o2)nc1-c1ccc(F)cc1 [Compound 23, 4-(4-Fluoro-phenyl)-5-methyl-2-[5-(2-trifluoromethoxy-phenyl)-furan-2-yl]-1H-imidazole]		3 to 10 (≈ 7.46 to 24.9 µM)	3		1 to 3 (≈ 2.49 to 7.46 µM)	20 to 50 (≈ 49.7 to 124 µM)	1 to 3 (≈ 2.49 to 7.46 µM)		< 1		3 (MIC100 of 3-10 μg/ml)			
Cc1[nH]c(-c2ccc(-c3ccccc3F)s2)nc1-c1ccccc1 [Compound 15]								2 (MIC100 of 11-201 μg/ml)		2 to 5 (≈ 5.98 to 15 µM)			3 (MIC100 of 2-5 μg/ml)	
Cc1nc(-c2ccc(-c3ccc(Cl)cc3Cl)o2)[nH]c1-c1ccc(F)cc1 [Compound 16]		1 to 3 (≈ 2.58 to 7.75 µM)	3		1 to 3 (≈ 2.58 to 7.75 µM)	3 to 10 (≈ 7.75 to 25.8 µM)	3 to 10 (≈ 7.75 to 25.8 µM)		< 1				3 (MIC100 of 2-5 μg/ml)	
Cc1[nH]c(-c2ccc(-c3ccccc3OC(F)(F)F)o2)nc1-c1ccccc1 [Compound 18]	3 to 10 (≈ 7.81 to 26 µM)	3 to 10 (≈ 7.81 to 26 µM)	2	1 to 3 (≈ 2.6 to 7.81 µM)	1 to 3 (≈ 2.6 to 7.81 µM)	3 to 10 (≈ 7.81 to 26 µM)	1 to 3 (≈ 2.6 to 7.81 µM)		< 1					
Cc1ccccc1-c1cnc(-c2ccc(-c3ccccc3C(F)(F)F)o2)[nH]1 [Compound 69]			2		11 to 201 (≈ 29.9 to 546 µM)		20 to 50 (≈ 54.3 to 136 µM)	2 (MIC100 of 11-201 μg/ml)	2 to 5 (≈ 5.43 to 13.6 µM)		3 (MIC100 of 3-10 μg/ml)	2 (MIC100 of 11-201 μg/ml)		
Cc1nc(-c2ccc(-c3cc(C(F)(F)F)cc(C(F)(F)F)c3)o2)[nH]c1-c1ccccc1 [Compound 35]	20 to 50 (≈ 45.8 to 115 µM)	20 to 50 (≈ 45.8 to 115 µM)		3 to 10 (≈ 6.88 to 22.9 µM)	3 to 10 (≈ 6.88 to 22.9 µM)	20 to 50 (≈ 45.8 to 115 µM)	3 to 10 (≈ 6.88 to 22.9 µM)		6 to 10 (≈ 13.8 to 22.9 µM)					
Cc1nc(-c2ccc(-c3ccc(Cl)c(OC(F)(F)F)c3)o2)[nH]c1-c1ccccc1 [Compound 41]	3 to 10 (≈ 7.16 to 23.9 µM)	3 to 10 (≈ 7.16 to 23.9 µM)	2	3 to 10 (≈ 7.16 to 23.9 µM)	3 to 10 (≈ 7.16 to 23.9 µM)	11 to 201 (≈ 26.3 to 480 µM)	3 to 10 (≈ 7.16 to 23.9 µM)		< 1					
Cc1[nH]c(-c2ccc(-c3ccc(OC(F)(F)F)cc3)o2)nc1-c1ccc(Cl)cc1 [Compound 48]		3 to 10 (≈ 7.16 to 23.9 µM)	2		3 to 10 (≈ 7.16 to 23.9 µM)	11 to 201 (≈ 26.3 to 480 µM)	3 to 10 (≈ 7.16 to 23.9 µM)		< 1		3 (MIC100 of 3-10 μg/ml)			
Cc1[nH]c(-c2ccc(-c3ccc(C(F)(F)F)cc3)o2)nc1-c1ccc(Cl)cc1 [Compound 47]		3 to 10 (≈ 7.45 to 24.8 µM)			1 to 3 (≈ 2.48 to 7.45 µM)	3 to 10 (≈ 7.45 to 24.8 µM)	3 to 10 (≈ 7.45 to 24.8 µM)	3 (MIC100 of 3-10 μg/ml)	< 1			3 (MIC100 of 3-10 μg/ml)		
Cc1[nH]c(-c2ccc(-c3ccc(OC(F)(F)F)cc3Cl)o2)nc1-c1ccc(F)cc1 [Compound 51]		20 to 50 (≈ 45.8 to 114 µM)	3		11 to 201 (≈ 25.2 to 460 µM)	20 to 50 (≈ 45.8 to 114 µM)	3 to 10 (≈ 6.87 to 22.9 µM)		2 to 5 (≈ 4.58 to 11.4 µM)		2 (MIC100 of 11-201 μg/ml)		3 (MIC100 of 2-5 μg/ml)	
Cc1[nH]c(-c2ccc(-c3ccccc3OC(F)(F)F)o2)nc1Cc1ccc(Br)cc1 [Compound 30, 4-(4-Bromo-benzyl)-5-methyl-2-[5-(2-trifluoromethoxy-phenyl)-furan-2-yl]-1H-imidazole]		3 to 10 (≈ 6.29 to 21 µM)	3		3 to 10 (≈ 6.29 to 21 µM)	11 to 201 (≈ 23 to 421 µM)	3 to 10 (≈ 6.29 to 21 µM)		< 1		3 (MIC100 of 3-10 μg/ml)			
Cc1[nH]c(-c2ccc(-c3ccc(Cl)c(C(F)(F)F)c3)o2)nc1-c1ccccc1 [Compound 39]		3 to 10 (≈ 7.45 to 24.8 µM)		3 to 10 (≈ 7.45 to 24.8 µM)	1 to 3 (≈ 2.48 to 7.45 µM)	1 to 3 (≈ 2.48 to 7.45 µM)	3 to 10 (≈ 7.45 to 24.8 µM)		2 to 5 (≈ 4.97 to 12.4 µM)					3 to 10 (≈ 7.45 to 24.8 µM)
FC(F)(F)Oc1ccccc1-c1ccc(-c2nc(-c3ccc(Cl)cc3Cl)c[nH]2)o1 [Compound 68]		11 to 201 (≈ 25 to 458 µM)	2		11 to 201 (≈ 25 to 458 µM)	3 to 10 (≈ 6.83 to 22.8 µM)	3 to 10 (≈ 6.83 to 22.8 µM)		2 to 5 (≈ 4.55 to 11.4 µM)		2 (MIC100 of 11-201 μg/ml)		2 (MIC100 of 6-10 μg/ml)	
